According to EP0189596A1, “Benzofuran and benzothiophene derivatives” (SHIONOGI & CO., LTD., priority 1984, dated 1986):

Key:
[1] = Bioassay for Diuretic Effect on Rats; assay type: in vivo, SLc:SD rats; conditions: Rat, oral, percentage to control (100%)
Method: (§1) I . Test Method: • Experiments with rats and mice were carried out according to Assay Programs #27-104 and #27-106, respectively. The outline is as follows.
SLc:SD 8-week-old rats (male, about 250g body-weight each) were used for the test. A few lumps of sugar in place of ordinary diets were given on the morning of the day before the test day and 5% glucose solution was given orally at a rate of 20 ml/kg in the evening (approximately at 4 p.m.) of the […]. In the morning for the test, a sample which was prepared by suspending or dissolving a test compound in 2X gum arabic was orally administered to each at a dose of 20 ml/kg. On the other hand, mere by 2% gum arabic was orally administered to the control group at 20 ml/kg. Immediately after the administration, the test animals were put in a plastic cage for the metabolic tests and their urine samples were collected for 5 hours. The cumulative urine volume, urinary sodium (Na^+), and urinary potassium (K^+) were quantitatively determined.
(§2) Results regarding the urine volume are shown by percentages to control (100%). Also, results regarding the urinary sodium (Na^+) and the urinary potassium (K^+) are shown by percentages to control (100%).

[2] = Bioassay for Diuretic Effect on Mice; assay type: in vivo, Slc:ddy mice; conditions: Mouse, oral, Dose (mg) 30, urine collected for 4 hours, percentage to control (100%)
Method: as §1
Slc:ddy 5-week-old mice (female, about 20g body-weight each) were used for the test. From the morning of the day before the test day, the mice were fasted but water. In the morning of the test day, a sample which was prepared by suspending or dissolving a test compound in 2% gum arabic was orally administered to each at 30 ml/kg. On the other hand, mere by 2% gum arabic was orally administered to the control group at 30 ml/kg. Immediately after the administration, 5 mice employed were put in a plastic cage for the metabolic tests and their urine samples were collected for 4 hours. The cumulative urine volume, urinary sodium (Na^+), and urinary potassium (K^+) were quantitatively determined. II. Test Results
as §2

[3] = Dose (mg) 50, urine collected for 5 hours
[4] = Dose (mg) 10, urine collected for 5 hours

For `CC(C(=O)c1cc2c(c(Cl)c1Cl)OC(C(=O)O)C2)=C1SCCS1` (stereo not drawn) [Example 3], the “Urinary K^+ (%)” value [1, 3] was 217※ %, the “Urinary Na^+ (%)” value [1, 3] was 291※ % and the “Urine Vol. (%)” value [1, 3] was 153※ %. The “Urinary K^+ (%)” value [2] was 304※ %, the “Urinary Na^+ (%)” value [2] was 1370※ % and the “Urine Vol. (%)” value [2] was 270※ %.

For `CSC(SC)=C(C)C(=O)c1cc2c(c(C)c1Cl)OC(C(=O)O)C2` (stereo not drawn) [Example 14], the “Urinary K^+ (%)” value [2] was 330※ %, the “Urinary Na^+ (%)” value [2] was 743※ % and the “Urine Vol. (%)” value [2] was 296※ %.

For `CSC(=CC(=O)c1cc2c(c(Cl)c1Cl)OC(C(=O)OCC(=O)O)C2)SC` (stereo not drawn) [Example 17, 6.7-Dichloro-5-[3,3-bis(metbylthic)-2-propenoyl]-2,3-dibydro-1-benzofuran-2-carboxyacetic acid], the “Urinary K^+ (%)” value [1, 3] was 285※ %, the “Urinary Na^+ (%)” value [1, 3] was 478※ % and the “Urine Vol. (%)” value [1, 3] was 144※ %. For the same compound, the “Urinary K^+ (%)” value [2] was 277※ %, the “Urinary Na^+ (%)” value [2] was 970※ % and the “Urine Vol. (%)” value [2] was 216※ %.

In the case of `CC(C(=O)c1cc2c(c(Cl)c1Cl)OC(C(=O)O)C2)=C1OCCS1` (stereo not drawn) [Example 21], the “Urinary K^+ (%)” value [1, 3] is reported as 178※ %, the “Urinary Na^+ (%)” value [1, 3] is reported as 179※ % and the “Urine Vol. (%)” value [1, 3] is reported as 104%. For the same compound, the “Urinary K^+ (%)” value [2] was 273※ %, the “Urinary Na^+ (%)” value [2] was 704※ % and the “Urine Vol. (%)” value [2] was 155※ %.

With `CSC(=CC(=O)c1cc2c(c(Cl)c1Cl)OC(C=O)C2)SC` (stereo not drawn) [Example 28] the “Urinary K^+ (%)” value [2] was 260^※ %, the “Urinary Na^+ (%)” value [2] was 905^※ % and the “Urine Vol. (%)” value [2] was 222^※ %.

With `CNC(=S)CC(=O)c1cc2c(c(Cl)c1Cl)OC(C(=O)O)C2` (stereo not drawn) [Example 67, 6,7-dichloro-5-[[N-methyl(thiocarbamoyl)]-acbtyl]-2,3-dihydrobenzofuran-2-carbaxylic acid] the “Urinary K^+ (%)” value [1, 3] was 306^※ %, the “Urinary Na^+ (%)” value [1, 3] was 377^※ % and the “Urine Vol. (%)” value [1, 3] was 148^※ %. The “Urinary K^+ (%)” value [2] was 232^※ %, the “Urinary Na^+ (%)” value [2] was 610^※ % and the “Urine Vol. (%)” value [2] was 192^※ %.

With `O=C(C=C1NC=CS1)c1cc2c(c(Cl)c1Cl)OC(C(=O)O)C2` (stereo not drawn) [Example 70, 6,7-dichloro-5-((4-thiazolin-2-ylidene)acetyl]-2,3-dihydro-benzofuran-2-carboxylic acid] the “Urinary K^+ (%)” value [1, 3] was 374^※ %, the “Urinary Na^+ (%)” value [1, 3] was 459^※ % and the “Urine Vol. (%)” value [1, 3] was 154^※ %. The “Urinary K^+ (%)” value [2] was 178^※ %, the “Urinary Na^+ (%)” value [2] was 410^※ % and the “Urine Vol. (%)” value [2] was 144^※ %.

With `C=C1CNC(=CC(=O)c2cc3c(c(Cl)c2Cl)OC(C(=O)O)C3)S1` (stereo not drawn) [Example 80] the “Urinary K^+ (%)” value [1, 4] was 161^※ %, the “Urinary Na^+ (%)” value [1, 4] was 211^※ % and the “Urine Vol. (%)” value [1, 4] was 101%. For the same compound, the “Urinary K^+ (%)” value [2] was 344^※ %, the “Urinary Na^+ (%)” value [2] was 738^※ % and the “Urine Vol. (%)” value [2] was 264^※ %.

With `CSc1[nH]ccc1C(=O)c1cc2c(c(Cl)c1Cl)OC(C(=O)O)C2` (stereo not drawn) [Example 98, 6,7-dichloro-5-[2-(methylthio)pyrrol-3-yl-carbonyl]-2,3-dihydrobenzofuran-2-carboxylic acid] the “Urinary K^+ (%)” value [1, 4] was 254^※ %, the “Urinary Na^+ (%)” value [1, 4] was 445^※ % and the “Urine Vol. (%)” value [1, 4] was 157^※ %. The “Urinary K^+ (%)” value [2] was 292^※ %, the “Urinary Na^+ (%)” value [2] was 810^※ % and the “Urine Vol. (%)” value [2] was 222^※ %.
